# Results taken from patent US8507539B2, “Potassium channel blockers and uses thereof” (Bionomics Limited, priority 2008, dated 2013).
# Read-outs that look alike come from different tables or passages of the source.
# Key:
# Format in all cases: cell-based
# hKv1.5 = molecular target: T1, hKv1.5 (Homo sapiens, UniProt P22460); test: Whole-cell patch-clamp inhibition of Kv1.5 currents in CHO cells stably transfected with hKv1.5; conditions: from IC50 values, CHO-hKv1.5 vs CHO-hKv1.3
# T1 construct: expressed in transfected cells
# Procedure: (§1) The effectiveness of the generated compounds in blocking the Kv1.3 current was assayed on CHO cells stably expressing hKv1.3. Cells were grown in F12 Kaighns' medium supplemented with 10% fetal calf serum, 2 mM L-glutamine, 1 mM Na^+ pyruvate, 100 units/ml penicillin, 100 Fg/ml streptomycin and 500 μg/ml G418 (to keep them under selection pressure). Kv1.3 currents were measured using the whole-cell configuration of the patch-clamp technique and were evoked by 500 ms depolarising voltage pulses to +40 mV from a holding potential of −80 mV at 30 sec intervals. Cells were continuously bathed in Ringers solution containing (mM): 160 NaCl, 4.5 KCl, 2.5 CaCl2, 1 MgCl2, 10 HEPES, pH 7.4, 290-310 mOsm. The internal (pipette) solution contained (mM): 134 KF, 2 MgCl2, 10 HEPES, 10 EGTA (pH 7.2, 290-310 mOsm). Series resistance compensation (60-80%) was applied when the peak current amplitude exceeded 2 nA. Compounds initially dissolved in DMSO were diluted in bath solution (final DMSO concentration 0.5%) and applied directly to the recording chamber at increasing concentrations allowing ample time for steady state block to be achieved between each concentration. Each compound was tested at 4-5 different concentrations in triplicate. IC50 values were determined by fitting the average normalised reduction of the current integral to the Hill equation.
# (§2) IC50 values for inhibition of Kv1.3 currents were determined as described above. IC50 values for inhibition of Kv1.1 and Kv1.5 currents were determined by the method above using Chinese Hamster Ovary (CHO) cells stably transfected with hKv1.1 and hKv1.5.
# hKv1.1 = molecular target: T2, hKv1.1 (Homo sapiens, UniProt Q09470); test: Whole-cell patch-clamp inhibition of Kv1.1 currents in CHO cells stably transfected with hKv1.1; conditions: from IC50 values, CHO-hKv1.1 vs CHO-hKv1.3
# T2 construct: expressed in transfected cells
# Procedure: as §1, §2
# hKv1.3 = hKv1.3 (Homo sapiens, UniProt P22001); test: Whole-cell patch-clamp block of Kv1.3 current in CHO cells stably expressing hKv1.3
# Procedure: as §1
# [1] = CHO cells stably expressing hKv1.3, whole-cell patch clamp, reported as ranges, read-out: IC50 (Kv1.3)
# [2] = IC50 for inhibition of Kv1.3 currents, CHO-hKv1.3, read-out: Potency for Kv1.3
# T1 sequence (P22460 whole entry): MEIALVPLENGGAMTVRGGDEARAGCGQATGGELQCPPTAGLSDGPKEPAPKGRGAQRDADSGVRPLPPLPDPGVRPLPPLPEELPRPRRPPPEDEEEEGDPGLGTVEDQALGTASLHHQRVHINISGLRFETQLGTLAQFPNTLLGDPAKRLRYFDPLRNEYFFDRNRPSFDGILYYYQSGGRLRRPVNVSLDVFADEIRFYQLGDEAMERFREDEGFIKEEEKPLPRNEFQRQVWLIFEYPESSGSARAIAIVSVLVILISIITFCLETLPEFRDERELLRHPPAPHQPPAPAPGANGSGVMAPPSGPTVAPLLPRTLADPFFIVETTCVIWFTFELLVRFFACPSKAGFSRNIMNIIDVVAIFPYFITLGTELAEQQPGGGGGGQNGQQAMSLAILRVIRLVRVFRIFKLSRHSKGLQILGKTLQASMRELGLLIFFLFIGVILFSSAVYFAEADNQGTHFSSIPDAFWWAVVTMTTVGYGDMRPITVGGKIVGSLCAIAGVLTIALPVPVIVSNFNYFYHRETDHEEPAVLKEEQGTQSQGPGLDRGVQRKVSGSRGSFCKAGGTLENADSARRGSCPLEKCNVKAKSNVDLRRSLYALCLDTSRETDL
# Sequence of hKv1.3 (P22001 whole entry): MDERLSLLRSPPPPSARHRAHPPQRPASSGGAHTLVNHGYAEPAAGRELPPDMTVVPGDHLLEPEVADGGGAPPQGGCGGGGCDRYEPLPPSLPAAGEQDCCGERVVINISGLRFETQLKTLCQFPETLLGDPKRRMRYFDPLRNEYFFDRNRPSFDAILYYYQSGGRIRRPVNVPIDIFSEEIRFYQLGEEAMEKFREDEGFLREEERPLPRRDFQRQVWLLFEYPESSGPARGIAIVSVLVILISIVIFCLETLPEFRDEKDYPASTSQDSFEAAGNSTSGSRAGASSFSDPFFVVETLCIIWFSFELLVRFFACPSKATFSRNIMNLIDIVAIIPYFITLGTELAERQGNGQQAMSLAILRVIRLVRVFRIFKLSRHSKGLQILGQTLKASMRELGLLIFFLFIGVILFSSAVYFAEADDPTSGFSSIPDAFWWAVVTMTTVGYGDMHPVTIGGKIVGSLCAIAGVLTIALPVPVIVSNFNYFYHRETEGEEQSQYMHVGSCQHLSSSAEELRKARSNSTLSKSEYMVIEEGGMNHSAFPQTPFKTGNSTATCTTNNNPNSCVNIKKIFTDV
# T2 sequence (Q09470 whole entry): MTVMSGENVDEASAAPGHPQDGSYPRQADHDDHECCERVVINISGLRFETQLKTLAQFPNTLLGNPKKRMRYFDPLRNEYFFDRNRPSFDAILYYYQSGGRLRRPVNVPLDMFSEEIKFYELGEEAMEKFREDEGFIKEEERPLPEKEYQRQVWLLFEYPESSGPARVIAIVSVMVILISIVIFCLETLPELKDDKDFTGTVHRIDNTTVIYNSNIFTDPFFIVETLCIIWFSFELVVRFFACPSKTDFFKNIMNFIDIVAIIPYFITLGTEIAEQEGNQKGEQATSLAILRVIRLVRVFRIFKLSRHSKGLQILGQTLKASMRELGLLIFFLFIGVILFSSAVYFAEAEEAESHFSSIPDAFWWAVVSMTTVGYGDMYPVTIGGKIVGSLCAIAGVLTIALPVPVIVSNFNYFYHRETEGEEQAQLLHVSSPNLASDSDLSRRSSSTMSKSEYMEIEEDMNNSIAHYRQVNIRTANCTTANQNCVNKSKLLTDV
smiles,measurement,setting,value
CC(=O)c1c(OCCN2CCSCC2)c(OCCC(C)c2ccc(F)cc2)c2oc(C)nc2c1C (centres unmarked) [Example 13],Selectivity for Kv1.3 over Kv1.5,hKv1.5,11 fold
same,Selectivity for Kv1.3 over Kv1.1,hKv1.1,15 fold
same,IC50,hKv1.3; [1],< 50 nM
same,IC50,hKv1.3; [2],< 50 nM
"CC(=O)c1c(OCCNC2CCCCC2)c(OCCC(C)c2ccc(F)cc2)c2oc(C)nc2c1C (centres unmarked) [Example 18, 5-Acetyl-6-(2-cyclohexylamino-ethoxy)-7-[3-(4-fluorophenyl)butoxy]-2,4-dimethyl-benzooxazole]",Selectivity for Kv1.3 over Kv1.5,hKv1.5,12 fold
same,Selectivity for Kv1.3 over Kv1.1,hKv1.1,11 fold
same,IC50,hKv1.3; [1],< 50 nM
same,IC50,hKv1.3; [2],< 50 nM
"CC(=O)c1c(OCCN2CCCC(F)(F)C2)c(OCCC(C)c2ccc(F)cc2)c2oc(C(F)F)nc2c1C (centres unmarked) [Example 31b, 5-Acetyl-7-[3-(4-fluorophenyl)butoxy]-6-(2-(3,3-difluoropiperidin-1-yl)-ethoxy)-4-methyl-2-difluoromethyl-benzo[d]oxazole]",Selectivity for Kv1.3 over Kv1.5,hKv1.5,29 fold
same,Selectivity for Kv1.3 over Kv1.1,hKv1.1,21 fold
same,IC50,hKv1.3; [1],< 50 nM
same,IC50,hKv1.3; [2],< 50 nM
"CC(=O)c1c(OCCN2CCCC(F)(F)C2)c(OCCC(C)c2ccc(F)cc2)c2oc(C)nc2c1Cl (centres unmarked) [Example 39, 5-Acetyl-4-chloro-7-(3-(4-fluorophenyl)butoxy)-6-(2-(3,3-difluoropiperidin-1-yl)ethoxy)-2-methyl-benzo[d]oxazole]",IC50,hKv1.3; [1],50 to 200 nM
CC(=O)c1c(OC2CCN(C3CCCC3)CC2)c(OCCC(C)c2ccc(F)cc2)c2oc(C)nc2c1C (centres unmarked) [Example 40c],IC50,hKv1.3; [1],50 to 200 nM
CC(=O)c1c(OC2CN(C3CCCC3)C2)c(OCCC(C)c2ccc(F)cc2)c2oc(C)nc2c1C (centres unmarked) [Example 41b],IC50,hKv1.3; [1],50 to 200 nM
"CC(=O)c1c(OCCN2CCCCC2)c(OCCC(C)c2ccc(F)cc2)c2oc(C)nc2c1C (centres unmarked) [Example 42, 5-Acetyl-7-[3-(4-fluorophenyl)butoxy]-6-[2-(piperidin-1-yl)-ethoxy]-2,4-dimethyl-benzooxazole]",Selectivity for Kv1.3 over Kv1.5,hKv1.5,24 fold
same,Selectivity for Kv1.3 over Kv1.1,hKv1.1,25 fold
same,IC50,hKv1.3; [1],< 50 nM
same,IC50,hKv1.3; [2],< 50 nM
"CC(=O)c1c(OCCN2CCCC(F)(F)C2)c(OCCC(C)c2ccc(F)cc2)c2oc(C)nc2c1C (centres unmarked) [Example 43, 5-Acetyl-7-[3-(4-fluorophenyl)butoxy]-6-[2-(3,3-difluoropiperidin-1-yl)-ethoxy]-2,4-dimethyl-benzooxazole]",IC50,hKv1.3; [1],< 50 nM
